Results taken from ChEMBL document CHEMBL3813602, “Disseminins and Spiciferone Analogues: Polyketide-Derived Metabolites from a Fungicolous Isolate of Pestalotiopsis disseminata” (J Nat Prod, 2016).
Activity calls are given as the source filed them.

Columns and labels:
Format in all cases: functional, organism-based
[1] = system: Fusarium verticillioides; test: Antimicrobial activity against Fusarium verticillioides at 100 ug/disk after 48 hrs by disk diffusion method
[2] = system: Bacillus subtilis; test: Antimicrobial activity against Bacillus subtilis at 100 ug/disk after 24 hrs by disk diffusion method
[3] = system: Staphylococcus aureus; test: Antimicrobial activity against Staphylococcus aureus at 100 ug/disk after 24 hrs by disk diffusion method
[4] = system: Aspergillus flavus; test: Antimicrobial activity against Aspergillus flavus at 100 ug/disk after 48 hrs by disk diffusion method
[5] = system: Escherichia coli; test: Antimicrobial activity against Escherichia coli at 100 ug/disk after 24 hrs by disk diffusion method
[6] = system: Candida albicans; test: Antimicrobial activity against Candida albicans at 100 ug/disk after 48 hrs by disk diffusion method
[7] = system: Escherichia coli; test: Antimicrobial activity against Escherichia coli at 50 ug/disk after 24 hrs by disk diffusion method
[8] = system: Candida albicans; test: Antimicrobial activity against Candida albicans at 50 ug/disk after 48 hrs by disk diffusion method
[9] = system: Bacillus subtilis; test: Antimicrobial activity against Bacillus subtilis at 50 ug/disk after 24 hrs by disk diffusion method
[10] = system: Staphylococcus aureus; test: Antimicrobial activity against Staphylococcus aureus at 50 ug/disk after 24 hrs by disk diffusion method

Measured: Activity

CCC(C)C(=O)[C@@H]1CO[C@@H](C)[C@@H](C)[C@H]1CO (mixture of isomers)
inactive: [1] | [2] | [3] | [4] | [5] | [6]

C[C@H](C(=O)[C@H]1CO[C@@]2(C)OC[C@@H]1[C@@H]2C)[C@@H](C)O
inactive: [1] | [2] | [3] | [4] | [5] | [6]

CC[C@H](C)C(=O)[C@H]1[C@H](CO)[C@H](C)[C@H](C)O[C@@H]1O
inactive: [1] | [2] | [3] | [4] | [5] | [6]

C[C@H]1[C@H]2[C@H](OC[C@@H]2C(=O)[C@@H](C)[C@@H](C)O)O[C@H]1C
inactive: [1] | [2] | [3] | [4] | [5] | [6]

CC[C@@](C)(C(=O)CCO)C1=CC(=O)[C@H](C)[C@H](C)O1
inactive: [7] | [8] | [9] | [10]

CC[C@@](C)(C(=O)CCO)C1=CC(=O)[C@@H](C)[C@H](C)O1
inactive: [7] | [8] | [9] | [10]
